These results are taken from patent US11591311B2, “3-oxo-6-heteroaryl-2-phenyl-2,3-dihydropyridazine-4-carboxamides” (priority 2017, dated 2023).

This assay has as its target T1, AHR (Homo sapiens, UniProt P35869).
T1 construct: U87 glioblastoma cells (ATCC) endogenously expressing AHR; host or cells: U87 glioblastoma cells, stably transfected with DRE-firefly luciferase and renilla reporter constructs
T1 sequence (P35869 11-848): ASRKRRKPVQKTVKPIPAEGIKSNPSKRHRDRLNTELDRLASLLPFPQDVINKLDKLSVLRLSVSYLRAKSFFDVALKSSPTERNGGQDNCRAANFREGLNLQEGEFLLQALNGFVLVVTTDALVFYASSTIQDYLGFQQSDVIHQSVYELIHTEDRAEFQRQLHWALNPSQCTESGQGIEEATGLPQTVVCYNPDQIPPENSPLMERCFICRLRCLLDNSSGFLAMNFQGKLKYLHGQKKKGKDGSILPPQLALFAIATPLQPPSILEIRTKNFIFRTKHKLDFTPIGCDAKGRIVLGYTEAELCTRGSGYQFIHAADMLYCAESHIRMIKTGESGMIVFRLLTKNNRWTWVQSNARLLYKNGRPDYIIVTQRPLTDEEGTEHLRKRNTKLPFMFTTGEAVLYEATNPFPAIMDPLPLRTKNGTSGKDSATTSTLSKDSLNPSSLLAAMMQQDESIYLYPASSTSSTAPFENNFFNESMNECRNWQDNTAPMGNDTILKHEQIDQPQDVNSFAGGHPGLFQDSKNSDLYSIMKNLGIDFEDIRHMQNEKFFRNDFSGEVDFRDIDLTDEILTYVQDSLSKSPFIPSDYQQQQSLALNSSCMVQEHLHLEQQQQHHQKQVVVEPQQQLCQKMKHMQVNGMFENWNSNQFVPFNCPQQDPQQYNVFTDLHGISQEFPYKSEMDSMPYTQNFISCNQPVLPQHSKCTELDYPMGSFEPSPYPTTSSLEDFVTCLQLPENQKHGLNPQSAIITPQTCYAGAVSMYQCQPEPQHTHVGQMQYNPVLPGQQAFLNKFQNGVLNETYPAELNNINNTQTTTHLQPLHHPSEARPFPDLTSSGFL
Briefly: In vitro assay 1: AHR-luc transactivation assay, antagonism in human cell line (U87 glioblastoma cells prestimulated with kynurenic acid). The format is cell-based. As for the experimental part:
Transactivation Assay in Human Cell Line (In Vitro Assays 1 and 2)
Transactivation assays were carried out in U87 glioblastoma cells (ATCC) endogenously expressing AHR. In addition the cells were stably transfected with an AHR inducible firefly luciferase reporter gene construct that carried AHR-binding sites (DRE) in its promoter and a renilla reporter gene construct with constitutively active promoter. Kynurenic acid is an endogenous AHR activating ligand and was used to prestimulate test cells prior to testing the antagonistic properties of compounds.
In Vitro Assay 1: Antagonism in Human Cell Line
Cells in medium (tryptophan free RPMI, 1% FCS, 2 mM Glutamine) supplemented with 150 μM kynurenic acid were grown for 20 hours in absence (negative control) or presence of increasing concentrations of test compounds (typical dilutions: 72 pmol/L, 0.25 nmol/L, 0.89 nmol/L; 3.1 nmol/L, 11 nmol/L, 38 nmol/L, 130 nmol/L, 470 nmol/L, 1.6 μmol/L, 5.7 μmol/L and 20 μmol/L in duplicates). As positive inhibition control cells supplemented with 150 μM kynurenic acid were incubated in presence of 5 μM Staurosporin. Normalization was done by positive and negative controls.
Firefly luciferase and Renilla activity was determined by the DualGlo Luciferase Assay System (Promega, #2920). Renilla activity was used to assess toxic effects of compounds.

pIC50: −log10 of the molar value.

`C[C@@H](CO)NC(=O)c1cc(-c2ccc(C(F)(F)F)nc2)nn(-c2ccc(F)c(F)c2)c1=O` [Example 3, 2-(3,4-Difluorophenyl)-N-[(2S)-1-hydroxypropan-2-yl]-3-oxo-6-[6-(trifluoromethyl)pyridin-3-yl]-2,3-dihydropyridazine-4-carboxamide] showed a negative logarithm of the IC50 (pIC50) of 6.21.
For `Cc1ccc(-c2cc(C(=O)N[C@@H](C)CO)c(=O)n(-c3cccc(F)c3)n2)nc1` [Example 12, 2-(3-Fluorophenyl)-N-[(2S)-1-hydroxypropan-2-yl]-6-(5-methylpyridin-2-yl)-3-oxo-2,3-dihydropyridazine-4-carboxamide] the value was 5.97.
For `C[C@H](NC(=O)c1cc(-c2cnc(C(F)(F)F)nc2)nn(-c2cccc(F)c2)c1=O)C(C)(C)O` [Example 14, 2-(3-Fluorophenyl)-N-[(2S)-3-hydroxy-3-methylbutan-2-yl]-3-oxo-6-[2-(trifluoromethyl)pyrimidin-5-yl]-2,3-dihydropyridazine-4-carboxamide] the value was 6.66; for `O=C(NC[C@H](O)C(F)F)c1cc(-c2cnc(C(F)(F)F)nc2)nn(-c2cccc(F)c2)c1=O` [Example 15, N-[(2S)-3,3-Difluoro-2-hydroxypropyl]-2-(3-fluorophenyl)-3-oxo-6-[2-(trifluoromethyl)pyrimidin-5-yl]-2,3-dihydropyridazine-4-carboxamide], 6.51.
Compound `C[C@H](O)[C@H](C)NC(=O)c1cc(-c2cnc(C(F)(F)F)nc2)nn(-c2cccc(F)c2)c1=O` [Example 16, 2-(3-Fluorophenyl)-N-[(2S,3S)-3-hydroxybutan-2-yl]-3-oxo-6-[2-(trifluoromethyl)pyrimidin-5-yl]-2,3-dihydropyridazine-4-carboxamide] had a negative logarithm of the IC50 (pIC50) of 6.77.
The same measure for `CC(C)(O)CNC(=O)c1cc(-c2cnc(C(F)(F)F)nc2)nn(-c2cccc(F)c2)c1=O` [Example 17, 2-(3-Fluorophenyl)-N-(2-hydroxy-2-methylpropyl)-3-oxo-6-[2-(trifluoromethyl)pyrimidin-5-yl]-2,3-dihydropyridazine-4-carboxamide]: 5.69; for `COc1ccc(-c2cc(C(=O)N[C@H](C)C(C)(C)O)c(=O)n(-c3cccc(F)c3)n2)cn1` [Example 20, 2-(3-Fluorophenyl)-N-[(2R)-3-hydroxy-3-methylbutan-2-yl]-6-(6-methoxypyridin-3-yl)-3-oxo-2,3-dihydropyridazine-4-carboxamide]: 6.29; for `Cc1ccc(-c2cc(C(=O)N[C@@H](C)CO)c(=O)n(-c3cccc(F)c3)n2)cn1` [Example 23, 2-(3-Fluorophenyl)-N-[(2S)-1-hydroxypropan-2-yl]-6-(6-methylpyridin-3-yl)-3-oxo-2,3-dihydropyridazine-4-carboxamide]: 6.58.
Take `C[C@@H](CO)NC(=O)c1cc(-c2ccc(Cl)cn2)nn(-c2cccc(F)c2)c1=O` [Example 24, 6-(5-Chloropyridin-2-yl)-2-(3-fluorophenyl)-N-[(2S)-1-hydroxypropan-2-yl]-3-oxo-2,3-dihydropyridazine-4-carboxamide]: the negative logarithm of the IC50 (pIC50) was 6.45.
`C[C@@H](CO)NC(=O)c1cc(-c2ccc(C(F)(F)F)cn2)nn(-c2cccc(F)c2)c1=O` [Example 25, 2-(3-Fluorophenyl)-N-[(2S)-1-hydroxypropan-2-yl]-3-oxo-6-[5-(trifluoromethyl)pyridin-2-yl]-2,3-dihydropyridazine-4-carboxamide] showed a negative logarithm of the IC50 (pIC50) of 7.07.
For `O=C(N[C@@H]1CSC[C@@H]1O)c1cc(-c2ccc(C(F)(F)F)nc2)nn(-c2cccc(F)c2)c1=O` [Example 26, 2-(3-Fluorophenyl)-N-[(3S,4R)-4-hydroxytetrahydrothiophen-3-yl]-3-oxo-6-[6-(trifluoromethyl)pyridin-3-yl]-2,3-dihydropyridazine-4-carboxamide] the value was 5.24.
In turn, `CC(C)(O)[C@@H](NC(=O)c1cc(-c2ccc(C(F)F)nc2)nn(-c2cccc(F)c2)c1=O)C1CC1` [Example 27, N-[(1S)-1-Cyclopropyl-2-hydroxy-2-methylpropyl]-6-[6-(difluoromethyl)pyridin-3-yl]-2-(3-fluorophenyl)-3-oxo-2,3-dihydropyridazine-4-carboxamide] showed a pIC50 of 8.39.
The same measure for `O=C(N[C@H](CO)C(F)(F)F)c1cc(-c2ccc(C(F)F)nc2)nn(-c2cccc(F)c2)c1=O` [Example 28, 6-[6-(Difluoromethyl)pyridin-3-yl]-2-(3-fluorophenyl)-3-oxo-N-[(2R)-1,1,1-trifluoro-3-hydroxypropan-2-yl]-2,3-dihydropyridazine-4-carboxamide]: 8.18; for `O=C(N[C@H](CO)C1CC1)c1cc(-c2ccc(C(F)F)nc2)nn(-c2cccc(F)c2)c1=O` [Example 29, N-[(1S)-1-Cyclopropyl-2-hydroxyethyl]-6-[6-(difluoromethyl)pyridin-3-yl]-2-(3-fluorophenyl)-3-oxo-2,3-dihydropyridazine-4-carboxamide]: 7.82.
The same measure for `O=C(N[C@H]1CCC[C@H]1O)c1cc(-c2ccc(C(F)F)nc2)nn(-c2cccc(F)c2)c1=O` [Example 30, 6-[6-(Difluoromethyl)pyridin-3-yl]-2-(3-fluorophenyl)-N-[(1S,2R)-2-hydroxycyclopentyl]-3-oxo-2,3-dihydropyridazine-4-carboxamide]: 7.66.
For `O=C(NCC1(O)CCCCC1)c1cc(-c2ccc(C(F)F)nc2)nn(-c2cccc(F)c2)c1=O` [Example 31, 6-[6-(Difluoromethyl)pyridin-3-yl]-2-(3-fluorophenyl)-N-[(1-hydroxycyclohexyl)methyl]-3-oxo-2,3-dihydropyridazine-4-carboxamide] the value was 7.50.
For `N#C[C@@H](CO)NC(=O)c1cc(-c2ccc(C(F)F)nc2)nn(-c2cccc(F)c2)c1=O` [Example 32, N-[(1S)-1-Cyano-2-hydroxyethyl]-6-[6-(difluoromethyl)pyridin-3-yl]-2-(3-fluorophenyl)-3-oxo-2,3-dihydropyridazine-4-carboxamide], the negative-log IC50 (pIC50) was 7.25.
The same measure for `O=C(N[C@H]1COC[C@H]1O)c1cc(-c2ccc(C(F)F)nc2)nn(-c2cccc(F)c2)c1=O` [Example 33, 6-[6-(Difluoromethyl)pyridin-3-yl]-2-(3-fluorophenyl)-N-[(3S,4S)-4-hydroxyoxolan-3-yl]-3-oxo-2,3-dihydropyridazine-4-carboxamide]: 7.12.
The compound `CC(C)(O)CNC(=O)c1cc(-c2ccc(C(F)F)nc2)nn(-c2cccc(F)c2)c1=O` [Example 34, 6-[6-(Difluoromethyl)pyridin-3-yl]-2-(3-fluorophenyl)-N-(2-hydroxy-2-methylpropyl)-3-oxo-2,3-dihydropyridazine-4-carboxamide] showed a negative-log IC50 (pIC50) of 6.81.
The compound `O=C(N[C@H]1COCC[C@H]1O)c1cc(-c2ccc(C(F)F)nc2)nn(-c2cccc(F)c2)c1=O` [Example 35, 1,5-Anhydro-2,4-dideoxy-2-[({6-[6-(difluoromethyl)pyridin-3-yl]-2-(3-fluorophenyl)-3-oxo-2,3-dihydropyridazin-4-yl}carbonyl)amino]-D-erythro-pentitol] had a negative-log IC50 (pIC50) of 6.76.
The same measure for `O=C(NC(CO)C1CCOC1)c1cc(-c2ccc(C(F)F)nc2)nn(-c2cccc(F)c2)c1=O` (stereo not drawn) [Example 36, 6-[6-(Difluoromethyl)pyridin-3-yl]-2-(3-fluorophenyl)-N-[2-hydroxy-1-(tetrahydrofuran-3-yl)ethyl]-3-oxo-2,3-dihydropyridazine-4-carboxamide]: 6.71.

The pIC50 is the IC50 on a negative log10 scale, so that one unit is a factor of ten. Read a high pIC50 as a low IC50.
